Assay results from EP1142587A1 (priority 1998, dated 2000).

How the values were obtained:
Mice = details: mouse, in vivo, ip
dopamine D2 receptor = target: T1, dopamine D2 receptor (Rattus norvegicus, UniProt P61169); assay: biochemical; assay type: binding
T1 construct: A membrane fraction obtained from rat corpus striatum was prepared as a membrane fraction of a dopamine D2 receptor; from tissue; host or cells: rat corpus striatum membrane fraction

mouse = assay: Anti-dopamine action against apomorphine-induced climbing behavior; assay type: in vivo; details: for Wall climbing behavior: apomorphine (2mg/kg, s.c.) + test substance; for ED50: sc, apomorphine 2mg/kg s.c. 10 minutes after test drug, climbing measured from 20 minutes after apomorphine for 1 minute, read-out: ED50 value regarding anti-dopamine action
Excerpt: The term "a compound having dopamine D2 receptor antagonist activity" is used herein to mean a compound showing a binding affinity in a D2 receptor membrane binding test, and also showing inhibiting effect to apomorphine-induced climbing behavior.
The administration of dopamine receptor agonists, apomorphine induces a continual climbing behavior in mice. A test for competitive action against this effect is generally used as a method for detecting the dopamine receptor antagonist. A mouse was put into a cylindrical wire gauze (10 cm diameter × 14cm height) and allowed to habituate itself with the circumstances for about 1 hour. Apomorphine (2mg/kg, s.c.) was administered to the mouse at 10 minutes after the administration of the test drug, and from 20 minutes after the administration of apomorphine, its climbing behavior (which means the period during which all four legs of the mouse have left from the ground) was measured for 1 minute. Furthermore, a sigmoid curve was determined from dose response by a method of least squares, and ED50 value was calculated.

Sprague-Dawley rats = details: rat, in vivo
ddY male mice = assay: animal or person; assay type: in vivo; details: Mus musculus, ip, 0.5 h, read-out: ED50 value regarding analgetic effect

T1 sequence (P61169 whole entry): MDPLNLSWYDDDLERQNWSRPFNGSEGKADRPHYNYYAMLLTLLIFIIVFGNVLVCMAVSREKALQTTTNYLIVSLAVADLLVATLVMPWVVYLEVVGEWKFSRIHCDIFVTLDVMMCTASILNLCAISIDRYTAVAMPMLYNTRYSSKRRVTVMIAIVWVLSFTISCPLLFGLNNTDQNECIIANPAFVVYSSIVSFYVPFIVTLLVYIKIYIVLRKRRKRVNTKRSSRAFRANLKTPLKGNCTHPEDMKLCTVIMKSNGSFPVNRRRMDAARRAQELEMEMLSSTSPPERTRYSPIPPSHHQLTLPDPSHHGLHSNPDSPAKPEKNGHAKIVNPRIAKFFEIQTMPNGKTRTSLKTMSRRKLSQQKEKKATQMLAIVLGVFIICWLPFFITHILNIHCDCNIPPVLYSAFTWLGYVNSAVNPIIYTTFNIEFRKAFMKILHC

For `Cc1ccc(CN2CCC3(CC2)C(=O)NCN3c2ccccc2)cc1` [Example 23, 1'-(4-methylbenzyl)-spiroimidazolidine-4,4'-piperidine-3-phenyl-5-on], the “effect on locomotor activity” value (Mice) was “no effect on locomotor activity”, the Ki (dopamine D2 receptor) was 52 nM and the Wall climbing behavior (mouse) was “inhibitory effect”. For the same compound, the ED50 (mouse) was 9.5 mg/kg.

With `CN1CC[C@]23c4c5ccc(O)c4O[C@H]2[C@@H](O)C=C[C@H]3[C@H]1C5` [Morphine, reference compound] the “position palatability (psychological dependence / aversive effect)” value (Sprague-Dawley rats) was “strong rewarding effect”, the “effect on locomotor activity” value (Mice) was “strong locomotor activity promoting effect” and the ED50 (ddY male mice) was 13.7 mg/kg.

For `O=C1NCN(c2ccccc2)C12CCN(Cc1cccnc1)CC2` [Example 17, 1'-(3-pyridyl)methyl-spiroimidazolidine-4,4'-piperidine-3-phenyl-5-on], the “effect on locomotor activity” value (Mice) was “no effect on locomotor activity” and the Ki (dopamine D2 receptor) was 457 nM.

`O=C1OC2(CCN(Cc3ccc(Cl)nc3)CC2)c2cc3ccccc3cc21` [Example 3, 1'-(6-chloro-3-pyridyl)methyl(benzo[f]1,3-dihydroisobenzofuran-1-spiro-4'-piperidine)-3-on] showed a Ki (dopamine D2 receptor) of 1590 nM.

Compound `O=C1OC2(CCN(Cc3ccc(Cl)nc3)CC2)c2c1ccc1ccccc21` [Example 2, 1'-(6-chloro-3-pyridyl)methyl(benzo[g]1,3-dihydroisobenzofuran-1-spiro-4'-piperidine)-3-on] has a Ki (dopamine D2 receptor) of 532 nM.

Work on `N=C1OC2(CCN(Cc3ccc(Cl)nc3)CC2)c2c1ccc1ccccc21` [Example 1, 1'-(6-chloro-3-pyridyl)methyl(benzo[g]1,3-dihydroisobenzofuran-1-spiro-4'-piperidine)-3-imine] yielded a Ki (dopamine D2 receptor) of 230 nM.

For `COc1ccc(CN2CCC3(CC2)C(=O)NCN3c2ccccc2)cc1` [Example 14, 1'-(4-methoxybenzyl)-spiroimidazolidine-4,4'-piperidine-3-phenyl-5-on], the “position palatability (psychological dependence / aversive effect)” value (Sprague-Dawley rats) was “neither psychological dependence nor aversive effects”, the “effect on locomotor activity” value (Mice) was “no effect on locomotor activity” and the Ki (dopamine D2 receptor) was 20 nM. The Wall climbing behavior (mouse) was “inhibitory effect” and the ED50 (mouse) was 2.22 mg/kg.

For `O=C1NCN(c2ccccc2)C12CCN(Cc1ccc(Br)cc1)CC2` [Example 18, 1'-(4-bromobenzyl)-spiroimidazolidine-4,4'-piperidine-3-phenyl-5-on], the “effect on locomotor activity” value (Mice) was “no effect on locomotor activity”, the Ki (dopamine D2 receptor) was 5.7 nM and the Wall climbing behavior (mouse) was “inhibitory effect”. It also gave an ED50 (mouse) of 1.05 mg/kg.

Compound `O=C1OC2(CCN(Cc3ccccc3)CC2)c2ccccc21` [Reference example 15, 1'-benzyl-spiro[benzodihydrofuran-1(3H),4'-piperidine)-3-on, reference compound] has a Ki (dopamine D2 receptor) of over 1000 nM.

`Cc1ccc(CN2CCC3(CC2)C(=O)NCN3c2ccccc2)cn1` [Example 16, 1'-(6-methyl-3-pyridyl)methyl-spiroimidazolidine-4,4'-piperidine-3-phenyl-5-on] was tested, and the “position palatability (psychological dependence / aversive effect)” value (Sprague-Dawley rats) was “neither psychological dependence nor aversive effects”, the “effect on locomotor activity” value (Mice) was “no effect on locomotor activity” and the Ki (dopamine D2 receptor) was 17 nM. The Wall climbing behavior (mouse) was “inhibitory effect” and the ED50 (mouse) was 11.9 mg/kg.

For `O=C1NCN(c2ccccc2)C12CCN(Cc1ccc(Cl)nc1)CC2` [Example 15, 1'-(6-chloro-3-pyridyl)methyl-spiroimidazolidine-4,4'-piperidine-3-phenyl-5-on], the “effect on locomotor activity” value (Mice) was “no effect on locomotor activity”, the Ki (dopamine D2 receptor) was 3.6 nM and the Wall climbing behavior (mouse) was “inhibitory effect”. It also gave an ED50 (mouse) of 1.22 mg/kg.

Compound `O=C1OC2(CCN(Cc3ccccc3)CC2)c2c1ccc1ccccc21` [Example 11, 1'-benzyl(benzo[g]1,3-dihydroisobenzofuran-1-spiro-4'-piperidine)-3-on] has a Ki (dopamine D2 receptor) of 177 nM.
